Measurements published in patent publication US20220323406A1, “METHODS AND COMPOSITIONS FOR DIFFERENTIATING STEM CELLS” (Massachusetts Institute of Technology, priority 2019, published 2022).

Columns and labels:
Details in all cases: primary screen
[1] = test system: ENR+CD organoids (ISC to Paneth cell differentiation); test: Primary screen: basal (non-stimulated) lysozyme secretion LYZ.NS, 2.5-D 384-well ENR+CD organoid differentiation; format: cell-based, mouse
Text: (§1) High-throughput screening.

[2] = test system: ENR+CD organoids (ISC to Paneth cell differentiation); test: Primary screen: CCh-stimulated lysozyme secretion LYZ.S, 2.5-D 384-well ENR+CD organoid differentiation; format: cell-based, mouse
Text: as §1

[3] = test system: ENR+CD organoids; test: Primary screen: ATP (CellTiter-Glo 3D, CTG) cell number/viability, 2.5-D 384-well ENR+CD organoids;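 also: compounds given at plating and again on day 3 over a 6-day differentiation from ENR+CV stem-cell-enriched precursors, ATP measured on day 6, plate median as control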

| Structure (SMILES) | Dose.FC.LYZ.NS ([1]; dose 0.08 uM) [log2 fold change] | Z.LYZ.NS (standard z score) ([1]; dose 0.08 uM) | Dose.FC.LYZ.NS ([1]; dose 0.40 uM) [log2 fold change] | Z.LYZ.NS (standard z score) ([1]; dose 0.40 uM) | Dose.FC.LYZ.NS ([1]; dose 2.00 uM) [log2 fold change] | Z.LYZ.NS (standard z score) ([1]; dose 2.00 uM) | Dose.FC.LYZ.NS ([1]; dose 10.00 uM) [log2 fold change] | Z.LYZ.NS (standard z score) ([1]; dose 10.00 uM) | Dose.FC.LYZ.S ([2]; dose 0.08 uM) [log2 fold change] | Dose.FC.LYZ.S ([2]; dose 0.40 uM) [log2 fold change] | Dose.FC.LYZ.S ([2]; dose 2.00 uM) [log2 fold change] | Dose.FC.LYZ.S ([2]; dose 10.00 uM) [log2 fold change] | Dose.FC.CTG ([3]; dose 0.08 uM) [log2 fold change] | Dose.FC.CTG ([3]; dose 0.40 uM) [log2 fold change] | Dose.FC.CTG ([3]; dose 2.00 uM) [log2 fold change] | Dose.FC.CTG ([3]; dose 10.00 uM) [log2 fold change] | Z.CTG (standard z score) ([3]; dose 0.08 uM) | Z.CTG (standard z score) ([3]; dose 0.40 uM) | Z.CTG (standard z score) ([3]; dose 2.00 uM) | Z.CTG (standard z score) ([3]; dose 10.00 uM) |
| --- | --- | --- | --- | --- | --- | --- | --- | --- | --- | --- | --- | --- | --- | --- | --- | --- | --- | --- | --- | --- |
| CCC(COC(=O)c1cc(OC)c(OC)c(OC)c1)(c1ccccc1)N(C)C (stereo not drawn) [Trimebutine] | −0.014 | −0.121 | −0.019 | −0.166 | −0.202 | −1.763 | −0.214 | −1.863 | 0.000 | 0.002 | −0.277 | −0.332 | 0.007 | −0.202 | −1.008 | −1.066 |  |  |  |  |
| O=C(O[C@H]1C[C@H]2CC[C@@H](C1)[N+]21CCCC1)C(O)(c1ccccc1)c1ccccc1 [Trospium chloride] | 0.169 | 1.470 | 0.218 | 1.895 | −0.002 | −0.017 | 0.102 | 0.885 | 0.119 | 0.117 | −0.008 | 0.084 | 0.083 | −0.031 | 0.200 | 0.148 |  |  |  |  |
| CC(C)(C)c1cc(/C=C(\C#N)C(N)=S)cc(C(C)(C)C)c1O [Tyrphostin AG 879] | 0.010 | 0.088 | −0.078 | −0.680 | −0.080 | −0.698 | −0.110 | −0.960 | −0.083 | −0.084 | −0.051 | −0.123 | −0.347 | −0.238 | −0.232 | −0.368 | −0.828 | −0.569 | −0.554 | −0.879 |
| CCO.N#CC(=C(/N)Sc1ccccc1N)/C(C#N)=C(\N)Sc1ccccc1N [U0126-EtOH] | 0.099 | 0.859 | 0.019 | 0.163 | −0.045 | −0.389 | −0.117 | −1.021 | 0.114 | 0.075 | −0.071 | −0.165 | −0.350 | −0.514 | −0.476 | −0.790 | −0.835 | −1.227 | −1.138 | −1.887 |
